# Test results as given in patent US4011221A, “S-Inosylcysteine and a process for producing the same” (Funai Pharmaceutical Industries, Ltd., priority 1974, dated 1977).
# Experiments:
# pylorus ligation ulcer = experiment: Effect on pylorus ligation ulcer in rats (Experiments 6 and 7); format: in vivo, Male Wister rats; settings: for anti-ulcer activity (in words): summary statement, Tables VI to VIII
# Method: a. Effect of S-inosylcysteine on pylorus ligation ulcer.
# (§1) Method: Male Wister rats (Keari Gifu-Lab.), aged 7 weeks were used. After fasting for 48 hours, rats weighing 210 to 230 g were divided into 6 groups of 10 rats. The pylorus of stomach was ligated under light anesthesia with pentobarbital sodium (25 mg per kg, i.p.). Immediately after the ligation, a psysiological saline was orally administered to one group and a solution of each tested compound (50 mg per kg) was orally administered to the remaining 5 groups. After these rats were kept without food and water for 10 hours from the ligation, the stomach was removed under anesthesia with pentobarbital sodium (30 mg per kg, i.p.). The gastric contents were aspirated and the stomach was fixed by means of the injection of 10 ml of a 2% formalin solution into the lumen. The stomach was opened along its greater curvature. The severity of the lesion of the rumen, that is, the degree of ulcer was expressed as ulcer index according to the method of Yokotani (Folia pharmacol. Japon. 56, 1373, (1960). The results are shown in Table VI.
# *Inhibition rate was calculated as follows: […]
# Method: The same method as described in Experiment 6 was employed. The
# effect of S-inosyl-L-cysteine
# on pylorus ligation ulcer was examined with intramuscular administration.
# gastric secretion = experiment: Effect on gastric secretion in pylorus-ligated rats; format: in vivo, Male Wister rats; settings: 50 mg/kg, p.o., 5 hours from ligation
# Method: as §1
# b. Effect of S-inosylcysteine on gastric secretion. Method: The rats were ligated in the same manner as in Experiment 6, and divided into 2 groups of 10 rats. Immediately after the ligation, a physiological saline or a solution of S-inosyl-L-cysteine was orally administered. After the rats were kept without food and water for 5 hours from the ligation, the esophagus was ligated and the stomach was removed under anesthesia with pentobarbital sodium (30 mg per kg. i.p.). The gastric contents were collected and centrifuged at 2,000 rpm for 10 minutes. The volume of supernatant was measured and its pH was determined with a pH meter (Hitach-Horiba Type M-5). Free-HCl, total-HCl and total-acidity in the supernatant were determined by the titration with 1/50 N NaOH using Topfer's solution and phenolphtalein solution as an indicator.
# chick embryo heart cells [1] = experiment: Effect on proliferation of chick embryo heart cells (Experiments 1 and 2); format: cell-based; settings: for cell-proliferating activity (in words): summary statement, Tables I to V
# Method: A. Effect of S-inosylcysteine on proliferation of chick embryo heart cells.
# (§2) Method: The hearts excised from 13-day-old chick embryos were cut into pieces 1 to 2 mm in diameter under sterile conditions. After washing with calcium and magnesium-free phosphate buffered saline (PBS), the pieces of hearts were treated with a solution of 0.1% trypsin in PBS freed from calcium and magnesium ions, and the supernatant fraction was discarded. The residue was treated with a solution of 0.1% trypsin in PBS freed from calcium and magnesium ions, and the supernatant fractions containing isolated cells were collected. The procedure was repeated 3 times. The supernatant fractions were combined and diluted with cold culture medium containing 10% fetal calf serum, sodium penicillin G (100 units per ml) and sulfate streptomycin (1 μg per ml), and centrifuged at 150 xG. The resulting pellet was washed twice with the culture medium and diluted cautiously with the same culture medium to give a suspension which contains 200,000 cells per ml. One ml of the suspension was poured into each of 28 culture tubes which were equally divided into 7 groups. The cells were cultured at 37° C in an incubator. After 1 day of incubation the culture medium of the tubes was removed and 1 ml of each culture medium containing compound shown in Table I was added thereto. After additional 3 days of incubation the culture medium was removed and the cells were then treated with 1 ml of 0.1 M citric acid containing 0.1% crystal violet. The number of cells was counted with a hemocytometer in quadruplicate after vigorous shaking.
# (§3) Method: The culture procedure for chick embryo heart cells was employed as described in Experiment 1. After 3 days of incubation, the culture medium was removed and 1 ml of each culture medium containing compounds shown in Table II was added thereto. After an additional 1 day of incubation the number of cells was counted.
# chick embryo heart cells [2] = experiment: Effect on proliferation of chick embryo heart cells in the presence of 6-mercaptopurine (Experiment 5); format: cell-based; settings: Experiment 5, 20 μg/ml, 6-mercaptopurine 5 μg per ml; for activity at 20 µg/mL: Gallus gallus, 24 h
# Method: as §2, §3
# Method: Same as in Experiment 2 except that 6-mercaptopurine (5 μg per
# ml) was added to each culture
# chick embryo heart cells [3] = experiment: Effect on proliferation of chick embryo heart cells in the presence of a growth inhibitor, KCN (Experiments 3 and 4); format: cell-based; settings: KCN 1.7 μg per ml; for activity at 20 µg/mL / activity at 50 µg/mL: Gallus gallus; for activity at 20 µg/mL: 24 h
# Method: as §2, with “After” for “Method: The hearts excised from 13-day-old chick embryos were cut into pieces 1 to 2 mm in diameter under sterile conditions. After”, “The resulting pellet was washed twice with the culture medium and diluted cautiously with the same culture medium to give a suspension which contains 200,000 cells per ml.” left out, “shaking. […] After 3 days of incubation, the culture medium was removed and 1 ml of each culture medium containing compounds shown in Table II was added thereto. After an additional 1 day of incubation the number of cells was counted. […] Method: The culture procedure for chick embryo heart cells was employed as described in Experiment 1. After one day of incubation, the culture medium was removed and 1 ml of each culture medium containing KCN (1.7 μg per ml) and compounds shown in Table III were added thereto.” for “shaking.”
compound,measurement,setting,value
"N[C@@H](CSC[C@H]1O[C@@H](n2cnc3c(=O)[nH]cnc32)[C@H](O)[C@@H]1O)C(=O)O [S-inosyl-L-cysteine, 5'-S-(2-amino-2-carboxyethyl)-5'-thioinosine]",Inhibition rate (%) of ulcer,"pylorus ligation ulcer; Experiment 6, 50 mg/kg, p.o.",42%
same,Mean ulcer index ± S.E.,"pylorus ligation ulcer; Experiment 6, 50 mg/kg, p.o., 10 hours from ligation",8.1 ± 1.1
same,Inhibition rate (%) of ulcer,"pylorus ligation ulcer; Experiment 7, 50 mg/kg, i.m.",59%
same,Mean ulcer index ± S.E.,"pylorus ligation ulcer; Experiment 7, 50 mg/kg, i.m.",5.1 ± 1.6
same,anti-ulcer activity (in words),pylorus ligation ulcer; listed as S-inosyl cysteine,superior to those of known related compounds (7) to (10)
same,anti-ulcer activity (in words),pylorus ligation ulcer; listed as S-inosylsteine,excellent
same,"Free-HCl, inhibition rate %",gastric secretion,36%
same,"Total-HCl, inhibition rate (%)",gastric secretion,23%
same,Total-acidity,gastric secretion,83.2 mEq/l
same,"Total-acidity, inhibition rate (%)",gastric secretion,22%
same,"Volume, inhibition rate (%)",gastric secretion,38%
same,pH (gastric contents supernatant),gastric secretion,1.50 ± 0.06
same,Free-HCl,gastric secretion; ± S.E.,42.8 ± 6.0 mEq/l
same,Total-HCl,gastric secretion; ± S.E.,73.8 ± 6.4 mEq/l
same,Volume (gastric contents supernatant),gastric secretion; ± S.E.,5.3 ± 0.5 mL
same,Cell number + S.E.,"chick embryo heart cells [1]; Experiment 1, 50 μg/ml, 3 days incubation",65.4 ± 1.6 ×10^4 cells
same,Cell number ± S.E.,"chick embryo heart cells [1]; Experiment 2, 20 μg/ml, 1 day with compound after 3 days of incubation",97.8 ± 3.8 ×10^4 cells
same,activity at 20 µg/mL,"chick embryo heart cells [1]; Gallus gallus, 24 h, Experiment 2, 20 μg/ml, control = 100.0, read-out: Growth rate (%)",120%
same,activity at 50 µg/mL,"chick embryo heart cells [1]; Gallus gallus, 72 h, Experiment 1, 50 μg/ml, control = 100.0, read-out: Growth rate %",128%
same,cell-proliferating activity (in words),chick embryo heart cells [1]; listed as S-inosycysteine,superior to those of known related compounds (2) to (10)
same,cell-proliferating activity (in words),chick embryo heart cells [1]; listed as S-inosylcysteine,remarkable
same,cell-proliferating activity (in words),chick embryo heart cells [1]; listed as S-inosylsteine,excellent
same,Cell number ± S.E.,chick embryo heart cells [2],85.8 ± 2.9 ×10^4 cells
same,activity at 20 µg/mL,"chick embryo heart cells [2]; its control = 100.0, read-out: Growth Rate (%)",126%
same,activity at 20 µg/mL,"chick embryo heart cells [2]; simultaneous with Experiment 2, read-out: Growth rate (%) with respect to control of Table II",105%
same,Cell number ± S.E.,"chick embryo heart cells [3]; Experiment 3, 50 μg/ml",50.9 ± 1.5 ×10^4 cells
same,Cell number ± S.E.,"chick embryo heart cells [3]; Experiment 4, 20 μg/ml",85.6 ± 0.4 ×10^4 cells
same,activity at 20 µg/mL,"chick embryo heart cells [3]; Experiment 4, 20 μg/ml, KCN control = 100.0, read-out: Growth rate (%)",130%
same,activity at 20 µg/mL,"chick embryo heart cells [3]; Experiment 4, 20 μg/ml, simultaneous with Experiment 2, read-out: Growth rate (%) with respect to control of Table II",105%
same,activity at 50 µg/mL,"chick embryo heart cells [3]; Experiment 3, 50 μg/ml, KCN control = 100.0, read-out: Growth Rate %",159%
same,activity at 50 µg/mL,"chick embryo heart cells [3]; Experiment 3, 50 μg/ml, simultaneous with Experiment 1, read-out: Growth rate (%) with respect to control of Table I",100%
